For eleven compounds, melting point results are on record in US11178872B2 (dated 2021).

The structures appear in SMILES notation.

For orientation: melting point means the temperature, or range, at which the solid turns liquid. For the compound `N#Cc1cc(C(=O)N2CCC(O)(c3ccc(Cl)cc3)CC2)c(C(F)F)nc1-c1ccc(Cl)cn1`, the melting point was 175 to 177 °C.

With `N#Cc1cc(C(=O)N2CCC(O)(c3ccccc3Cl)C2)c(C(F)F)nc1-c1ccc(C(F)(F)F)cc1` (centres unmarked), the melting point fell in the range of 191 to 195 °C.

Regarding `Cc1nc(C2CCN(C(=O)c3cc(C#N)c(-c4ccc(Cl)s4)nc3C)CC2)no1`, the melting point was in the range of 69 to 71 °C.

The compound `N#Cc1cc(C(=O)N2CCC(c3noc(O)n3)C2)c(C(F)F)nc1-c1ccc(C(F)(F)F)cc1` (centres unmarked) registered a melting point of 181 to 184 °C.

For the compound `CO[C@@]1(c2ccc(C)cc2)[C@@H]2CC[C@H]1CN(C(=O)c1cc(C#N)c(-c3ccc(C(F)(F)F)cc3)nc1C(F)F)C2`, the melting point is 228 to 230 °C.

For `Cc1nc(C2CCN(C(=O)c3cc(C#N)c(-c4ccc(C(F)(F)F)cn4)nc3C)CC2)no1`, the melting point is 60 to 62 °C.

Take `N#Cc1cc(C(=O)N2CCC(O)(c3ccc(Cl)cc3)CC2)c(C(F)F)nc1-c1ccc(C(F)(F)F)cc1`: the melting point is 200 °C.

Consider `CCCn1cc(-c2nc(C(F)F)c(C(=O)N3CCC(O)(c4ccc(Cl)cc4)CC3)cc2C#N)cn1`, for which the melting point fell in the range of 193 to 195 °C.

As for `N#Cc1cc(C(=O)N2CCC(O)(c3ccc(Cl)cc3)CC2)c(C(F)F)nc1-c1ccnc(F)c1`, the melting point fell in the range of 150 to 155 °C.

Consider `N#Cc1cc(C(=O)N2CCC(O)(c3ccc(Cl)cc3)CC2)c(C(F)F)nc1-c1ccc(C(F)(F)F)nc1`, for which the melting point lay within 177 to 180 °C.

Compound `Cn1cc(-c2nc(C(F)F)c(C(=O)N3CCC(O)(c4ccc(Cl)cc4)CC3)cc2C#N)cn1` yielded a melting point of 220 °C.
